From PubChem BioAssay (NCI)
Values joined by “and” are separate entries in the source; they are usually repeats but may differ in a detail not shown here. Equal entries are not always repeated.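 Grown in 96-well plates, cells were treated for 48 hours with each compound at five concentrations. Insufficient inhibition: endpoint recorded as highest concentration tested. Abbreviation: GI50, concentration required for 50% inhibition of growth. TGI: total growth inhibition.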

How the values were obtained:
Test in all cases: NCI-60 cell line screen, 48 h
786-0 renal = test system: 786-0 renal
UO-31 renal = test system: UO-31 renal
EKVX NSCLC = test system: EKVX NSCLC
SNB-75 CNS = test system: SNB-75 CNS
SF-539 CNS = test system: SF-539 CNS
ACHN renal = test system: ACHN renal
HT29 colon = test system: HT29 colon
K-562 leukemia = test system: K-562 leukemia

| SMILES | TGI (786-0 renal) [µM] | TGI (UO-31 renal) [µM] | TGI (EKVX NSCLC) [µM] | TGI (SNB-75 CNS) [µM] | TGI (SF-539 CNS) | TGI (ACHN renal) [µM] | TGI (HT29 colon) [µM] | TGI (K-562 leukemia) [µM] | GI50 (786-0 renal) [µM] | GI50 (UO-31 renal) | GI50 (EKVX NSCLC) | GI50 (SF-539 CNS) | GI50 (ACHN renal) [µM] | GI50 (HT29 colon) | GI50 (K-562 leukemia) | GI50 (SNB-75 CNS) [µM] |
| --- | --- | --- | --- | --- | --- | --- | --- | --- | --- | --- | --- | --- | --- | --- | --- | --- |
| Cn1c2c(c3ccccc31)CCN1C(=O)CCC21 (stereo not drawn) | > 10 | > 10 | > 10 | > 10 | > 10 µM | > 10 | > 10 | > 10 |  |  |  |  |  |  |  |  |
| CC(=O)c1cc(C(=O)c2ccc3c(c2)Sc2ccccc2N3)n2ccccc12 |  | > 33.2 | > 33.2 |  | 0.00949 µM and 0.0103 µM |  |  | > 33.2 | 0.00459 | 0.00579 µM and 0.00332 µM | 0.0291 µM and 0.00498 µM | 0.00278 µM and 0.00332 µM | 0.00545 | 0.0035 µM and 0.00332 µM | 0.00385 µM and 0.00332 µM |  |
| Cc1cc(Nc2nc(N[C@@H](C)c3ncc(F)cn3)ncc2Cl)n[nH]1 | > 100 | > 100 | > 100 | 36.4 | 58 µM | > 100 | > 100 | > 100 | 23.6 | 24.6 µM | 56.8 µM | 14.9 µM | 20.4 | 27.8 µM | 32.2 µM | 8.85 |
| Cc1cn(Cc2ccc(C34CC5CC(CC(C5)C3)C4)c(O)c2)c(=O)[nH]c1=O | 27 | 23.8 | 29.1 | 29.6 | 23 µM | 24.3 | 26.5 | 11 | 12.6 | 11.6 µM | 8.21 µM | 9.45 µM | 10.8 | 11.1 µM | 2.99 µM | 11.2 |
| CN1CCN(C(=O)COc2ccc(/C=C3\CC4C5CC=C6CC(Cl)CCC6(C)C5CCC4(C)C3=O)cc2)CC1 (stereo not drawn) | > 100 | > 100 | > 100 | 56.7 | > 100 µM | > 100 |  | > 100 | 88.1 | > 100 µM | > 100 µM | > 100 µM | > 100 |  | 2.61 µM | 19 |
| CCN(CC)CCCC(C)N/C(=C1\C(=O)NC(=O)\C1=C(/NC(C)CCCN(CC)CC)c1cccc(OC)c1)c1cccc(OC)c1 (stereo not drawn) | 2.64 | 1.49 |  | 1.67 | 1.51 µM | 2.16 | 2.01 | 3.86 | 0.833 | 0.733 µM |  | 0.791 µM | 0.393 | 0.372 µM | 0.581 µM | 0.735 |
| CSc1nc2c(c(=O)n1C)CN(C1CCCCC1)C(=O)C(c1ccccc1)N2 (stereo not drawn) | > 100 | > 100 | > 100 | > 100 | > 100 µM | > 100 | > 100 | > 100 | 68.3 | 34.1 µM | 38.8 µM | 51.7 µM | 12.1 | 33.3 µM | 4 µM | 95.8 |
| CCN(Cc1cccc(Cl)c1)c1ccc(CO)c(Cl)c1 | 20.9 | 17.6 | 27 | 30.2 | 30.8 µM | 25.1 | 14.6 | > 50 | 5.96 | 3.55 µM | 12.4 µM | 15.9 µM | 11.9 | 3.61 µM | 1.65 µM | 12 |
| c1ccc(CNCCN(CCNCc2ccccn2)Cc2ccc3ccccc3c2)nc1 | 8.15 | 2.3 | 7.58 | 9.98 | 3.1 µM | 2.43 | 7.93 | 8.73 | 2.34 | 0.668 µM | 1.71 µM | 1.64 µM | 1.05 | 3.04 µM | 2.97 µM | 2.03 |
| CCCCCCCC/C=C/CCCCCCCC1=NC(C)(C)CN1CCO | 3.14 | 6.85 | 12.8 | 4.26 | 3.07 µM | 5.79 | 3.1 | 3.02 | 1.73 | 2.18 µM | 3.55 µM | 1.68 µM | 2.28 | 1.51 µM | 1.3 µM | 1.83 |
| C/C(=C(\c1ccc(OCCN2CCCCCC2)cc1)c1ccc(OC(=O)c2ccccc2)cc1)c1ccc(Cl)cc1 | 7.73 | 6.17 | 13.9 |  | 8.31 µM | 9.46 | 4.57 | 33.3 | 3.58 | 1.61 µM | 4.97 µM | 3.79 µM | 4.87 | 1.28 µM | 1.31 µM |  |
| O=C(O)C1[O][Sb][O]C(C(=O)O)C1O (stereo not drawn) | > 100 | > 100 | > 100 | > 100 |  | > 100 | > 100 | > 100 | > 100 | > 100 µM | > 100 µM |  | > 100 | > 100 µM | > 100 µM | > 100 |
| CN1CCN(Cc2ccc(NC(=O)c3cncc(C#Cc4cnc(N)c5cccnc45)c3)cc2C(F)(F)F)CC1 | > 50 | 2.78 | > 50 | > 12 | 1.78 µM |  | > 50 | > 50 | 1.26 | 1.1 µM | 1.36 µM | 0.288 µM |  | 0.157 µM | 0.005 µM | 0.469 |
| CCOP(=O)(OCC)C(C(=O)OC)C(=O)C(=O)Nc1cccc(O)c1 (stereo not drawn) | > 100 | > 100 | > 100 | > 100 | > 100 µM | > 100 | > 100 |  |  |  |  |  |  |  |  |  |
| C=CCC(N[C@@H](CO)c1ccccc1)c1cn(C(=O)OCC)c2ccccc12 (stereo partly drawn) | 36.7 | > 100 | > 100 |  | 37.3 µM | 63 | 62.7 | > 100 | 18 | 32.3 µM | 35.3 µM | 20.6 µM | 24.3 | 23.3 µM | 22.6 µM |  |
| C/C=C1/CC(C)C(C)(O)C(=O)OCC2C(O)CN3CCC(OC1=O)C23 (stereo not drawn) | > 100 |  | > 100 | > 100 | > 100 µM | > 100 | > 100 | > 100 |  |  |  |  |  |  |  |  |
